Calls of active or inactive are those of the source. The rule behind the calls is not given here.
Columns and labels:
[1] = tested on: NCI-H1975; assay: cells; type: functional, cell-based; settings: Homo sapiens, NCI-H1975, 72 h
Description: Antiproliferative activity against human NCI-H1975 cells harboring EGFR L858R/T790M double mutant assessed as reduction in cell viability after 72 hrs by MTT assay

[2] = tested on: MCF7; assay: cells; type: functional, cell-based; settings: Homo sapiens, MCF7, 72 h;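 also: antiproliferative effect measured by MTT assay in EGFR-overexpressing MCF7 cells, with IC50 based on the drop in viable cells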
Description: Antiproliferative activity against human MCF7 cells overexpressing EGFR assessed as reduction in cell viability after 72 hrs by MTT assay

[3] = tested on: A549; assay: cells; type: functional, cell-based; settings: Homo sapiens, A549, 72 h
Description: Antiproliferative activity against human A549 cells harboring K-ras mutation assessed as reduction in cell viability after 72 hrs by MTT assay

[4] = target: Epidermal growth factor receptor (Homo sapiens, UniProt P00533, L858R/T790M); type: protein assay;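 also: recombinant enzyme, cytoplasmic domain autophosphorylation read out by Z'-Lyte assay, IC50 reflects decrease in autophosphorylation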
Description: Inhibition of recombinant human EGFR L858R/T790M double mutant assessed as reduction in autophosphorylation of cytoplasmic domain by Z'-Lyte assay

[5] = tested on: Epidermal growth factor receptor (Homo sapiens), P00533 [L858R,T790M]; assay: Potency index, ratio of gefitinib IC50 to compound IC50 for inhibition of recombinant human EGFR L858R/T790M double mutant; type: protein assay
[6] = Antiproliferative activity against human HCC827 cells harboring EGFR E746 to A750 deletion mutant assessed as reduction in cell viability after 72 hrs by MTT assay; type: functional, cell-based; settings: HCC827, 72 h
[7] = tested on: A-431; assay: cells; type: functional, cell-based; settings: Homo sapiens, A-431, 72 h;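 also: loss of viability in A431 cells carrying wild-type EGFR, read out by MTT, antiproliferative effect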
Description: Antiproliferative activity against human A431 cells harboring wild type EGFR assessed as reduction in cell viability after 72 hrs by MTT assay

[8] = target: Epidermal growth factor receptor (Homo sapiens, UniProt P00533);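 also: recombinant wild-type human EGFR cytoplasmic domain, inhibition measured as decrease in autophosphorylation via Z'-Lyte readout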
Description: Inhibition of wild type recombinant human EGFR assessed as reduction in autophosphorylation of cytoplasmic domain by Z'-Lyte assay

[9] = tested on: NCI-H1975; assay: Effect on total EGFR L858R/T790M double mutant level in human NCI-H1975 cells at 0.1 to 10 uM after 12 hrs by Western blot analysis; type: ADME, cell-based; settings: nci-h1975, 12 h
[10] = tested on: Epidermal growth factor receptor (Homo sapiens), P00533 [L858R,T790M]; settings: NCI-H1975, at 1 µM
Description: Inhibition of EGFR L858R/T790M double mutant in human NCI-H1975 cells assessed as reduction in phosphorylated AKT level at 1 uM after 12 hrs by Western blot analysis

[11] = tested on: Epidermal growth factor receptor (Homo sapiens), P00533 [L858R,T790M]; assay: Inhibition of EGFR L858R/T790M double mutant autophosphorylation in human NCI-H1975 cells after 12 hrs by Western blot analysis; type: cell-based
[12] = tested on: NCI-H1975; assay: Effect on total AKT level in human NCI-H1975 cells at 0.1 to 10 uM after 12 hrs by Western blot analysis; type: ADME, cell-based; settings: nci-h1975, 12 h
[13] = tested on: NCI-H1975; assay: Effect on total beta-actin level in human NCI-H1975 cells at 0.1 to 10 uM after 12 hrs by Western blot analysis; type: ADME, cell-based; settings: nci-h1975, 12 h
[14] = tested on: NCI-H1975; assay: Potency index, ratio of gefitinib IC50 to compound IC50 for antiproliferative activity against human NCI-H1975 cells harboring EGFR L858R/T790M double mutant; type: functional

Structure (SMILES) | IC50 [1] | IC50 [2] | IC50 [3] | IC50 [4] | Ratio IC50 [5] | IC50 [7] | IC50 [8] | inhibition [10] | inhibition [11] | IC50 [6] | Activity [9] | Activity [12] | Activity [13] | Ratio IC50 [14]
COCCOc1cc2ncnc(Nc3ccc(NC(=O)C45CC6CC(CC(C6)C4)C5)c(C#N)c3)c2cc1OCCOC | 38.3 µM | 5.64 µM | 7.74 µM | 0.0104 µM | – | 4.51 µM | 0.00501 µM | – | – | > 0.04 µM | – | – | – | –
COc1cc2ncnc(Nc3ccc(C(=O)NC45CC6CC(CC(C6)C4)C5)c(Cl)c3)c2cc1OCCCN1CCOCC1 | 5.89 µM | 5.48 µM | 2.65 µM | 0.00462 µM | 160 | 2.06 µM | 0.00642 µM | Active | Dose-dependent effect | 0.009 µM | Non-toxic | Non-toxic | Non-toxic | 5
COCCOc1cc2ncnc(Nc3ccc(NC(=O)C45CC6CC(CC(C6)C4)C5)c(C)c3)c2cc1OCCOC | 21.6 µM | 8.35 µM | 8.01 µM | 0.0663 µM | – | 5.61 µM | 0.00292 µM | – | – | 0.023 µM | – | – | – | –
COCCOc1cc2ncnc(Nc3cccc(NC(=O)C45CC6CC(CC(C6)C4)C5)c3)c2cc1OCCOC | 18.8 µM | 11.2 µM | 3.99 µM | 0.0145 µM | – | 9.52 µM | 0.00163 µM | – | – | 0.03 µM | – | – | – | –
COc1cc2ncnc(Nc3cc(C(=O)NC45CC6CC(CC(C6)C4)C5)ccc3C)c2cc1OCCCN1CCOCC1 | 17.1 µM | 9.04 µM | 6.73 µM | 0.0327 µM | – | 5.74 µM | 0.0154 µM | – | – | 0.014 µM | – | – | – | –

The next lines start with results.

IC50 [1] | IC50 [2] | IC50 [3] | IC50 [4] | Ratio IC50 [5] | IC50 [7] | IC50 [8] | inhibition [10] | inhibition [11] | Structure (SMILES) | IC50 [6] | Activity [9] | Activity [12] | Activity [13] | Ratio IC50 [14]
> 40 µM | 12 µM | 6.11 µM | 0.0054 µM | 160 | 27.9 µM | 0.00201 µM | – | – | COc1cc2ncnc(Nc3ccc(C(=O)NC45CC6CC(CC(C6)C4)C5)cc3)c2cc1OCCCN1CCOCC1 | 0.009 µM | – | – | – | –
35.9 µM | 9.94 µM | 8.86 µM | 0.159 µM | – | 15.9 µM | 0.00311 µM | – | – | COc1cc2ncnc(Nc3cccc(NC(=O)C45CC6CC(CC(C6)C4)C5)c3)c2cc1OCCCN1CCOCC1 | 0.035 µM | – | – | – | –
26.2 µM | 11.6 µM | 5.94 µM | 0.00571 µM | 160 | 3.39 µM | 0.00471 µM | – | – | COc1cc2ncnc(Nc3ccc(C(=O)NC45CC6CC(CC(C6)C4)C5)c(C#N)c3)c2cc1OCCCN1CCOCC1 | 0.02 µM | – | – | – | –
12.4 µM | 1.25 µM | 3.42 µM | 0.00602 µM | 160 | 1.02 µM | 0.00961 µM | Active | Dose-dependent effect | COCCOc1cc2ncnc(Nc3ccc(C(=O)NC45CC6CC(CC(C6)C4)C5)cc3)c2cc1OCCOC | 0.038 µM | Non-toxic | Non-toxic | Non-toxic | –
16.6 µM | 5.34 µM | 4.58 µM | 0.0165 µM | – | 4.73 µM | 0.00452 µM | – | – | COCCOc1cc2ncnc(Nc3ccc(NC(=O)C45CC6CC(CC(C6)C4)C5)cc3C)c2cc1OCCOC | 0.025 µM | – | – | – | –
33.1 µM | 5.19 µM | 7.62 µM | 0.0108 µM | – | 6.62 µM | 0.00594 µM | – | – | COCCOc1cc2ncnc(Nc3ccc(NC(=O)C45CC6CC(CC(C6)C4)C5)c(OC)c3)c2cc1OCCOC | > 0.04 µM | – | – | – | –
31 µM | 23.6 µM | 11.6 µM | 0.0115 µM | – | 10.5 µM | 0.00112 µM | – | – | COc1cc2ncnc(Nc3cccc(C(=O)NC45CC6CC(CC(C6)C4)C5)c3)c2cc1OCCCN1CCOCC1 | 0.02 µM | – | – | – | –

Reference: ChEMBL document CHEMBL3763063, “Novel 4-anilinoquinazoline derivatives featuring an 1-adamantyl moiety as potent EGFR inhibitors with enhanced activity against NSCLC cell lines” (Eur J Med Chem, 2016)
